Data from patent publication EP1117659B1, “SUBSTITUTED 3-CYANOQUINOLINES AS PROTEIN TYROSINE KINASES INHIBITORS” (Wyeth Holdings Corporation, priority 1998, dated 2000).
Converted amounts (≈) assume the structure as drawn.

What was measured:
[1] = target: T1, Kinase insert Domain containing Receptor (KDR: the catalytic domain of the VEGF receptor) (Homo sapiens, UniProt P35968); assay: Inhibition of Kinase insert Domain containing Receptor (KDR), radioactive phosphorylation of Glu:Tyr copolymer; format: biochemical; conditions: IC50, substrate phosphorylation
T1 construct: KDR: the catalytic domain of the VEGF receptor
How it was run: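 KDR catalytic domain phosphorylates poly(Glu:Tyr 4:1) with Mg++ and sodium vanadate at pH 7.2, started by ATP plus 32P- or 33P-ATP tracer. Acid-insoluble radioactivity quantifies substrate phosphorylation. Repeat entries per compound are separate runs.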

A2780 = assay: Inhibition of Cancer Cell Growth as Measured by Cell Number (Sulforhodamine B); format: cell-based; conditions: Homo sapiens, 48 hours exposure
Experimental: (§1) Human tumor cell lines were plated in 96-well plates (250 µl/well, 1-6 x 10^4 cells/ml) in RPMI 1640 medium, containing 5% FBS (Fetal Bovine Serum). […] After 48 hours exposure to test compounds, cells were fixed with trichloroacetic acid, and stained with Sulforhodamine B. After washing with trichloroacetic acid, bound dye was solubilized in 10 mM Tris base and optical density was determined using plate reader. Under conditions of the assay the optical density is proportional to the number of cells in the well. […] The test procedure is described in details by Philip Skehan et. al, J.Natl. Canc. Inst., 82, 1107-1112 (1990). […] Information about some of the cell lines used in these test procedures is available from the American Type Tissue Collection: Cell Lines and Hybridomas, 1994 Reference Guide, 8th Edition.

DDP = assay: as above; format: cell-based; conditions: Homo sapiens; 48 hours exposure
Experimental: as §1

MDA-MB-435 = assay: as above; format: cell-based, Human; conditions: Homo sapiens, MDA-MB-435, 48 h, 48 hours exposure
Experimental: as §1

A431 = assay: as above; format: cell-based, Human; conditions: Homo sapiens, A-431, 48 h, 48 hours exposure
Experimental: as §1

SW620 = assay: as above; format: cell-based, Human; conditions: Homo sapiens, SW-620, 48 h, 48 hours exposure
Experimental: as §1

SK-BR3 = assay: as above; format: cell-based, Human; conditions: Homo sapiens, SK-BR-3, 48 h, 48 hours exposure
Experimental: as §1

[2] = test system: Human Colon Carcinoma SW620; assay: In Vivo Inhibition of the Growth of Human Colon Carcinoma SW620 in mice; conditions: for S/T = No. Survivors/No. Treated on Day +21 post tumor staging / %T/C Day 7 / %T/C Day 14 / Relative Tumor Growth Day 14 / %T/C Day 21 / Relative Tumor Growth Day 21 / Relative Tumor Growth Day 7: days 1 through 20; for tumor growth was inhibited by: 30 mg/kg i.p. during days 1-20
Experimental: A unit of 7 X 10^6 cells were injected SC into mice. […] Control animals received vehicle only. Tumor mass was determined every 7 days [(length X width^2)/2] for 28 days post staging.

3T3 = assay: Inhibition of Cancer Cell Growth as Measured by Cell Number (Sulforhodamine B); format: cell-based; conditions: Mus musculus, NIH3T3; 48 hours exposure
Experimental: as §1

3T3/c-erbb2 = assay: as above; format: cell-based; conditions: 48 hours exposure
Experimental: as §1

[3] = target: T2, epidermal growth factor receptor kinase (EGF-R Kinase, recombinant enzyme; His-tagged cytoplasmic domain of EGFR) (Homo sapiens, UniProt P00533); assay: Inhibition of Epidermal Growth Factor Receptor Kinase (EGF-R) using recombinant enzyme, RR-SRC peptide phosphorylation, 33P-ATP; format: biochemical
T2 construct: EGFR cDNA encoding amino acids 645 - 1186 preceded by Met-Ala-(His)6; Met-Ala-(His)6 (N); made in house; host or cells: Sf9 insect cells, recombinant baculovirus vHcEGFR52
How it was run: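 His-tagged EGFR cytoplasmic domain (aa 645–1186, baculovirus/Sf9) preincubated with compound 10 min on ice, then RR-SRC peptide (80 µM final) and γ-33P-ATP added. Reaction run 90 min at room temperature; peptide-bound 33P counted on P81 filters, background-corrected. IC50 from dose-response of ≥3 concentrations.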

[4] = target: Epithelial Cell Kinase (ECK) (Homo sapiens, UniProt P29317); assay: Inhibition of Epithelial Cell Kinase (ECK), immobilized biotinylated peptide, HRP anti-phosphotyrosine readout; format: biochemical; conditions: IC50, substrate phosphorylation
How it was run: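 Biotinylated peptide substrate immobilized on neutravidin plates, reacted with ECK, test drug, Mg++ and sodium vanadate at pH 7.2; ATP added to start phosphorylation. After washing, phosphopeptide detected with HRP-conjugated anti-phosphotyrosine antibody, HRP activity reflecting substrate phosphorylation. Repeat entries are separate tests of the same compound.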

T1 sequence (P35968 834-1162 limits assumed): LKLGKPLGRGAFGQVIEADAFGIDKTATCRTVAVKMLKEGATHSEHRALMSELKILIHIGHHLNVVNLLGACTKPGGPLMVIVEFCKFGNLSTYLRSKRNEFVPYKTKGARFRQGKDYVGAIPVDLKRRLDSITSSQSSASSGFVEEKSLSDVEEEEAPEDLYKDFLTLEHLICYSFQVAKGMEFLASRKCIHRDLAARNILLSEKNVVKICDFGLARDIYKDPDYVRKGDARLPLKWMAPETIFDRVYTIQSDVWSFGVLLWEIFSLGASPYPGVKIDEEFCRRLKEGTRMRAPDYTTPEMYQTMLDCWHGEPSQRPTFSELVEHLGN
T2 sequence (P00533 669-1210): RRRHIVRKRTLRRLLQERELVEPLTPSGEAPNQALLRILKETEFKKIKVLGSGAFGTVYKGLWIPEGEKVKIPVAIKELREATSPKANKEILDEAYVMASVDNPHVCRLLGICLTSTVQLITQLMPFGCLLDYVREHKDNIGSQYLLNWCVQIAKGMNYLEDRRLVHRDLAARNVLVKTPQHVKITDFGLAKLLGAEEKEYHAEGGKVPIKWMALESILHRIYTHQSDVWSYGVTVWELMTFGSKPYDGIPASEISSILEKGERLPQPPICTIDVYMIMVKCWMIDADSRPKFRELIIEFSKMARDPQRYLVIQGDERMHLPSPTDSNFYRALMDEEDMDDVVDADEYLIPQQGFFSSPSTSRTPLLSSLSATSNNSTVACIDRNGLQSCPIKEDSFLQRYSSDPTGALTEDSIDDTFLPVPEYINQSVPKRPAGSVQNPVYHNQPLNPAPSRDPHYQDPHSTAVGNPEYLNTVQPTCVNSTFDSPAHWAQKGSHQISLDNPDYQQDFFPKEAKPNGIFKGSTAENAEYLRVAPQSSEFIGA
Sequence of Epithelial Cell Kinase (ECK) (P29317 24-976, species assumed): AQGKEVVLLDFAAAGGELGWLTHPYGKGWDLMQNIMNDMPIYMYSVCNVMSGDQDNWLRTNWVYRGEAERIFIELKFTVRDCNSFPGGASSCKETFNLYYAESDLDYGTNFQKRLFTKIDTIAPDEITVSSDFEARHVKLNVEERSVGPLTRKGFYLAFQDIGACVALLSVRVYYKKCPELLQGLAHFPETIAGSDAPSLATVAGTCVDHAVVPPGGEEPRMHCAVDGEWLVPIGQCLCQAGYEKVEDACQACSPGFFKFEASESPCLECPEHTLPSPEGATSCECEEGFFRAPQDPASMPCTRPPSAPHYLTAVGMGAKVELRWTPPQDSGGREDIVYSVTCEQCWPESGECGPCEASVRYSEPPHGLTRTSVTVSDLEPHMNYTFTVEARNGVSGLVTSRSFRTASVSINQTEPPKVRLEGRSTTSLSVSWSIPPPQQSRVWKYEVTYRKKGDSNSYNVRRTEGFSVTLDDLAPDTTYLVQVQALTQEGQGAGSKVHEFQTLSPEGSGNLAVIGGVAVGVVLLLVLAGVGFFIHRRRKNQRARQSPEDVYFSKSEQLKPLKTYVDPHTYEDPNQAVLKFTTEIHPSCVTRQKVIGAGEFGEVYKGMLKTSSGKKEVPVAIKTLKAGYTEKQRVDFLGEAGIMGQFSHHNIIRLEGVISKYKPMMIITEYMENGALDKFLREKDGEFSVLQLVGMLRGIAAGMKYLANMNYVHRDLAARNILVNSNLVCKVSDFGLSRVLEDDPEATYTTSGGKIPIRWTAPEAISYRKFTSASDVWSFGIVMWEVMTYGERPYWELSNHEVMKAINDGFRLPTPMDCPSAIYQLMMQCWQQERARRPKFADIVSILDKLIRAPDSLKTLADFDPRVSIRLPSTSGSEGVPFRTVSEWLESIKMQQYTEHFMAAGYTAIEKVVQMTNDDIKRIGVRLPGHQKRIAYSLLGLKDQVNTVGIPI

Which results are given for `CCOc1cc2ncc(C#N)c(Nc3ccc4cn[nH]c4c3)c2cc1OCC` [Example 99, 6,7-Diethoxy-4-(1H-indazol-6-ylamino)-quinoline-3-carbonitrile]?
IC50 [1]: 21.4 µM; IC50 (A2780): 0.032 µg/mL (≈ 0.0857 µM); IC50 (DDP): 0.036 µg/mL (≈ 0.0964 µM); IC50 (MDA-MB-435): 0.02 µg/mL (≈ 0.0536 µM); IC50 (A431): 0.025 µg/mL (≈ 0.0669 µM); IC50 (SW620): 0.033 µg/mL (≈ 0.0884 µM); IC50 (SK-BR3): 0.016 µg/mL (≈ 0.0428 µM); S/T = No. Survivors/No. Treated on Day +21 post tumor staging ([2]; 3 mg/kg/dose IP): 5/5; %T/C Day 7 ([2]; 3 mg/kg/dose IP): 93%; %T/C Day 14 ([2]; 3 mg/kg/dose IP): 108%; Relative Tumor Growth Day 14 ([2]; 3 mg/kg/dose IP): 12.53; %T/C Day 21 ([2]; 3 mg/kg/dose IP): 147%; Relative Tumor Growth Day 21 ([2]; 3 mg/kg/dose IP): 16.47; S/T = No. Survivors/No. Treated on Day +21 post tumor staging ([2]; 10 mg/kg/dose IP): 5/5; %T/C Day 7 ([2]; 10 mg/kg/dose IP): 90%; Relative Tumor Growth Day 7 ([2]; 10 mg/kg/dose IP): 3.69; %T/C Day 14 ([2]; 10 mg/kg/dose IP): 68%; Relative Tumor Growth Day 14 ([2]; 10 mg/kg/dose IP): 7.88; %T/C Day 21 ([2]; 10 mg/kg/dose IP): 87%; Relative Tumor Growth Day 21 ([2]; 10 mg/kg/dose IP): 9.75; tumor growth was inhibited by ([2]; day 7): 56%; tumor growth was inhibited by ([2]; day 14): 67%; tumor growth was inhibited by ([2]; day 21): 60%; S/T = No. Survivors/No. Treated on Day +21 post tumor staging ([2]; 30 mg/kg/dose IP): 4/5; %T/C Day 7 ([2]; 30 mg/kg/dose IP): 44%; Relative Tumor Growth Day 7 ([2]; 30 mg/kg/dose IP): 1.81; %T/C Day 14 ([2]; 30 mg/kg/dose IP): 33%; Relative Tumor Growth Day 14 ([2]; 30 mg/kg/dose IP): 3.85; %T/C Day 21 ([2]; 30 mg/kg/dose IP): 40%; Relative Tumor Growth Day 21 ([2]; 30 mg/kg/dose IP): 4.44

`CCOc1cc2ncc(C#N)c(Nc3ccc4cc[nH]c4c3)c2cc1OCC` [Example 101, 6,7-Diethoxy-4-(1H-indol-6-ylamino)-quinoline-3-carbonitrile] was tested. Which IC50 [1] did it give?
The IC50 was 5.37 µM.

And the IC50 (3T3)?
Its IC50 is 1.53 µg/mL (≈ 4.11 µM).

What about the IC50 (A2780) of the same compound?
The IC50 was 0.231 µg/mL (≈ 0.62 µM).

What about the IC50 (DDP) of the same compound?
The IC50 was 0.313 µg/mL (≈ 0.84 µM).

And the IC50 (3T3/c-erbb2)?
The IC50 was 0.933 µg/mL (≈ 2.51 µM).

And the IC50 (A431)?
Its IC50 is 0.216 µg/mL (≈ 0.58 µM).

And the IC50 (SW620)?
Its IC50 is 0.326 µg/mL (≈ 0.875 µM).

And the inhibition at 0.5 µM ([3]; read-out: %Inh @ 0.5 µM)?
Its inhibition at 0.5 µM is 27%.

And the IC50 ([3]; recombinant enzyme, 90 min at room temperature)?
Its IC50 is > 1 µM.

And the IC50 [4]?
The IC50 was > 53.7 µM.
